Reference: patent US10316017B2, “COT modulators and methods of use thereof” (Gilead Sciences, Inc., priority 2015, dated 2019)

Tests used:
[1] = tested on: TNFα production in LPS-stimulated human monocytes; assay: Cot Monocyte TNFα Cell Based Assay; details: Homo sapiens, Monocyte, TNFα in LPS-stimulated human monocytes; read-out: EC50 TNF
In short: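 Cells at 5,000/well were pretreated with compound for 1 h at 37 °C (0.5% DMSO final), then stimulated with 50 pg/ml LPS for 4 h at 37 °C. Supernatant TNFα was measured by two-antibody TR-FRET after overnight room-temperature incubation; values are percent of control between unstimulated and stimulated wells.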

[2] = biological target: T1, human Cot catalytic domain (30-397 amino acids) (Homo sapiens, UniProt P41279); assay: High Throughput Cot Biochemical Assay (KinEASE TR-FRET); details: Cot KinEASE TR-FRET (HTRF) biochemical assay, 400 μM ATP; read-out: IC50 HTRF
T1 construct: Purified recombinant human Cot catalytic domain (30-397 amino acids) was purchased from Cama Biosciences; purchased Cama Biosciences (so in the source)
T1 sequence (P41279 30-397): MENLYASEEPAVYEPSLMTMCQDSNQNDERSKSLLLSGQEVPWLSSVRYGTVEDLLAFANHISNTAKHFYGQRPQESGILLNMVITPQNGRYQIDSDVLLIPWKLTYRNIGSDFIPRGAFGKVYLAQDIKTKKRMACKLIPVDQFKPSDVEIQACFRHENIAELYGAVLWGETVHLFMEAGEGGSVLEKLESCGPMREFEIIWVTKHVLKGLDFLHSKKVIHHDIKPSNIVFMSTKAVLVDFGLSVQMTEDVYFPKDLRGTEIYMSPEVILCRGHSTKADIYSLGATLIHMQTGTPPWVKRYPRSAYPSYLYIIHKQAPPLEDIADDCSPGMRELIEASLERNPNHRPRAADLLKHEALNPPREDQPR
In short: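 Reaction of 5 nM recombinant human Cot catalytic domain (aa 30-397) with 1 μM STK3 peptide (XL665-labeled) and 400 μM ATP in 10 mM MOPS pH 7.0, 10 mM MgOAc, 1 mM DTT, 0.5 mg/mL BSA, 0.1% DMSO. Phosphopeptide detected by TR-FRET with europium anti-phospho antibody.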

| SMILES | EC50 [1] | IC50 [2] |
| --- | --- | --- |
| CC[C@@H](Nc1c(C#N)cnc2c(Cl)cc(N[C@@H](c3ccc(F)cc3)c3c[nH]nn3)c(F)c12)c1ccccc1 [Example 297] | 4250 nM | > 10000 nM |
| [2H][C@](Nc1cc(Cl)c2ncc(C#N)c(NNC3CCCCC3)c2c1)(c1ccc(F)cc1)c1cn(C2CC2)nn1 [Example 301, (S)-8-chloro-4-(2-cyclohexylhydrazinyl)-6-(((1-cyclopropyl-1H-1,2,3-triazol-4-yl)(4-fluorophenyl)methyl-d)amino)quinoline-3-carbonitrile] | 1240 nM | > 10000 nM |
| [2H][C@](Nc1cc(Cl)c2ncc(C#N)c(NC(CCC#N)c3ccccc3)c2c1)(c1ccc(F)cc1)c1cn(C2CC2)nn1 (stereo partly drawn) [Example 302, 8-chloro-4-((3-cyano-1-phenylpropyl)amino)-6-(((S)-(1-cyclopropyl-1H-1,2,3-triazol-4-yl)(4-fluorophenyl)methyl-d)amino)quinoline-3-carbonitrile] | 74 nM | 3 nM |
| CC(C)n1cc([C@@H](Nc2cc(Cl)c3ncc(C#N)c(N[C@@H](CC#N)c4ccccc4)c3c2)c2ccc(F)cc2)nn1 [Example 304, 8-chloro-4-(((S)-2-cyano-1-phenylethyl)amino)-6-(((S)-(4-fluorophenyl)(1-isopropyl-1H-1,2,3-triazol-4-yl)methyl)amino)quinoline-3-carbonitrile] | > 10000 nM | 864 nM |
| CC(C)n1cc([C@@H](Nc2cc(Cl)c3ncc(C#N)c(N[C@H](CC#N)c4ccccc4)c3c2)c2ccc(F)cc2)nn1 [Example 305, 8-chloro-4-(((R)-2-cyano-1-phenylethyl)amino)-6-(((S)-(4-fluorophenyl)(1-isopropyl-1H-1,2,3-triazol-4-yl)methyl)amino)quinoline-3-carbonitrile] | 78 nM | 4 nM |
| [2H][C@](Nc1cc(Cl)c2ncc(C#N)c(N[C@H]3CCC[C@H](O)C3)c2c1)(c1ccc(F)cc1)c1cn(C2CC2)nn1 [Example 313, 8-chloro-6-(((S)-(1-cyclopropyl-1H-1,2,3-triazol-4-yl)(4-fluorophenyl)methyl-d)amino)-4-(((1S,3S)-3-hydroxycyclohexyl)amino) quinoline-3-carbonitrile] | 527 nM | 39 nM |
| [2H][C@](Nc1cc(Cl)c2ncc(C#N)c(N[C@@H]3CCC[C@H](O)C3)c2c1)(c1ccc(F)cc1)c1cn(C2CC2)nn1 [Example 314, 8-chloro-6-(((S)-(1-cyclopropyl-1H-1,2,3-triazol-4-yl)(4-fluorophenyl)methyl-d)amino)-4-(((1R,3S)-3-hydroxycyclohexyl)amino) quinoline-3-carbonitrile] | 6390 nM | 1330 nM |
| [2H][C@](Nc1cc(Cl)c2ncc(C#N)c(N[C@H]3CCC[C@@H](O)C3)c2c1)(c1ccc(F)cc1)c1cn(C2CC2)nn1 [Example 315, 8-chloro-6-(((S)-(1-cyclopropyl-1H-1,2,3-triazol-4-yl)(4-fluorophenyl)methyl-d)amino)-4-(((1S,3R)-3-hydroxycyclohexyl)amino) quinoline-3-carbonitrile] | 1010 nM | 134 nM |
| [2H][C@](Nc1cc(Cl)c2ncc(C#N)c(N[C@@H]3CCC[C@@H](O)C3)c2c1)(c1ccc(F)cc1)c1cn(C2CC2)nn1 [Example 316, 8-chloro-6-(((S)-(1-cyclopropyl-1H-1,2,3-triazol-4-yl)(4-fluorophenyl)methyl-d)amino)-4-(((1R,3R)-3-hydroxycyclohexyl)amino) quinoline-3-carbonitrile] | 3640 nM | 1820 nM |
| [2H][C@](Nc1cc(Cl)c2ncc(C#N)c(N[C@@H]3CCCCC3(C)C)c2c1)(c1ccc(F)cc1)c1cn(C2CC2)nn1 [Example 318, 8-chloro-6-(((S)-(1-cyclopropyl-1H-1,2,3-triazol-4-yl)(4-fluorophenyl)methyl-d)amino)-4-(((R)-2,2-dimethylcyclohexyl)amino) quinoline-3-carbonitrile] | 451 nM | 34 nM |
| [2H][C@](Nc1cc(Cl)c2ncc(C#N)c(NC3CCCCC3C)c2c1)(c1ccc(F)cc1)c1cn(C2CC2)nn1 (stereo partly drawn) [Example 321, 8-chloro-6-(((S)-(1-cyclopropyl-1H-1,2,3-triazol-4-yl)(4-fluorophenyl)methyl-d)amino)-4-((2-methylcyclohexyl)amino) quinoline-3-carbonitrile] | 391 nM | 159 nM |
| N#Cc1cnc2c(Cl)cc(N[C@@H](c3ccc(F)cc3)c3cn(C4CC4)nn3)cc2c1NC(CN1CCOCC1)c1ccccc1 (stereo partly drawn) [Example 322, 8-chloro-6-(((S)-(1-cyclopropyl-1H-1,2,3-triazol-4-yl)(4-fluorophenyl)methyl)amino)-4-((2-morpholino-1-phenylethyl)amino)quinoline-3-carbonitrile] | 959 nM | 140 nM |
| N#Cc1cnc2c(Cl)cc(N[C@@H](c3ccc(F)cc3)c3cn(C4CC4)nn3)cc2c1NC(CF)c1ccccc1 (stereo partly drawn) [Example 323, 8-chloro-6-(((S)-(1-cyclopropyl-1H-1,2,3-triazol-4-yl)(4-fluorophenyl)methyl)amino)-4-((2-fluoro-1-phenylethyl)amino)quinoline-3-carbonitrile] | 1600 nM | 82 nM |
| N#Cc1ccccc1[C@H](Nc1cc(Cl)c2ncc(C#N)c(Nc3cnc(F)c(F)c3)c2c1)c1cn(C2CC2)nn1 [Example 325, (S)-8-chloro-6-(((2-cyanophenyl)(1-cyclopropyl-1H-1,2,3-triazol-4-yl)methyl)amino)-4-((5,6-difluoropyridin-3-yl)amino)quinoline-3-carbonitrile] | 356 nM | 8 nM |

Second part, the compound after the results:

| EC50 [1] | IC50 [2] | SMILES |
| --- | --- | --- |
| 44 nM | 2 nM | [2H][C@](Nc1cc(Cl)c2ncc(C#N)c(N[C@H](CC#N)c3ccccc3)c2c1)(c1cccc(C#N)c1)c1cn(C2CC2)nn1 [Example 296, 8-chloro-4-(((R)-2-cyano-1-phenylethyl)amino)-6-(((S)-(3-cyanophenyl)(1-cyclopropyl-1H-1,2,3-triazol-4-yl)methyl-d)amino)quinoline-3-carbonitrile] |
| 1470 nM | 121 nM | [2H][C@](Nc1cc(Cl)c2ncc(C#N)c(N[C@H](CC)c3ccccc3)c2c1)(c1ccccc1Cl)c1nn[nH]c1C [Example 298, 8-chloro-6-(((S)-(2-chlorophenyl)(5-methyl-1H-1,2,3-triazol-4-yl)methyl-d)amino)-4-(((R)-1-phenylpropyl)amino)quinoline-3-carbonitrile] |
| 309 nM | 12 nM | [2H][C@](Nc1cc(Cl)c2ncc(C#N)c(NCC(C)(C)C#N)c2c1)(c1ccc(F)cc1)c1cn(C2CC2)nn1 [Example 299, (S)-8-chloro-4-((2-cyano-2-methylpropyl)amino)-6-(((1-cyclopropyl-1H-1,2,3-triazol-4-yl)(4-fluorophenyl)methyl-d)amino)quinoline-3-carbonitrile] |
| 126 nM | 4 nM | [2H][C@](Nc1cc(Cl)c2ncc(C#N)c(N[C@H](CC)c3cccc(F)c3)c2c1)(c1ccc(F)cc1)c1cn(C2CC2)nn1 [Example 300, 8-chloro-6-(((S)-(1-cyclopropyl-1H-1,2,3-triazol-4-yl)(4-fluorophenyl)methyl-d)amino)-4-(((R)-1-(3-fluorophenyl)propyl)amino) quinoline-3-carbonitrile] |
| 174 nM | 4 nM | [2H][C@](Nc1cc(Cl)c2ncc(C#N)c(Nc3cnc(F)c(Cl)c3)c2c1)(c1cccc(C#N)c1)c1cn(C2CC2)nn1 [Example 303, (S)-8-chloro-4-((5-chloro-6-fluoropyridin-3-yl)amino)-6-(((3-cyanophenyl)(1-cyclopropyl-1H-1,2,3-triazol-4-yl)methyl-d)amino)quinoline-3-carbonitrile] |
| 950 nM | 116 nM | [2H][C@](Nc1cc(Cl)c2ncc(C#N)c(NC(c3ccccc3)C(C)(C)C)c2c1)(c1ccc(F)cc1)c1cn(C2CC2)nn1 (stereo partly drawn) [Example 307, 8-chloro-6-(((S)-(1-cyclopropyl-1H-1,2,3-triazol-4-yl)(4-fluorophenyl)methyl-d)amino)-4-((2,2-dimethyl-1-phenylpropyl)amino)quinoline-3-carbonitrile] |
| 361 nM | 26 nM | [2H][C@](Nc1cc(Cl)c2ncc(C#N)c(NCC(C)(C)CO)c2c1)(c1ccc(F)cc1)c1cn(C2CC2)nn1 [Example 308, (S)-8-chloro-6-(((1-cyclopropyl-1H-1,2,3-triazol-4-yl)(4-fluorophenyl)methyl-d)amino)-4-((3-hydroxy-2,2-dimethylpropyl)amino) quinoline-3-carbonitrile] |
| 2360 nM | > 10000 nM | [2H][C@](Nc1cc(Cl)c2ncc(C#N)c(NNC(C)(C)C)c2c1)(c1ccc(F)cc1)c1cn(C2CC2)nn1 [Example 310, (S)-4-(2-(tert-butyl)hydrazinyl)-8-chloro-6-(((1-cyclopropyl-1H-1,2,3-triazol-4-yl)(4-fluorophenyl)methyl-d)amino)quinoline-3-carbonitrile] |
| 177 nM | 5 nM | [2H][C@](Nc1cc(Cl)c2ncc(C#N)c(NCC(C)(C)C)c2c1)(c1ccccc1)c1cn(C2CC2)nn1 [Example 312, (S)-8-chloro-6-(((1-cyclopropyl-1H-1,2,3-triazol-4-yl)(phenyl)methyl-d)amino)-4-(neopentylamino)quinoline-3-carbonitrile] |
| 450 nM | 4 nM | [2H][C@](Nc1cc(Cl)c2ncc(C#N)c(NCC(C)(C)C)c2c1)(c1cccc(C#N)c1)c1c[nH]nn1 [Example 324, (S)-8-chloro-6-(((3-cyanophenyl)(1H-1,2,3-triazol-4-yl)methyl-d)amino)-4-(neopentylamino) quinoline-3-carbonitrile] |
